This experiment deals with Parkinson's Disease (PD) patients. As to the kind of experiment: Levodopa level medication test: UPDRS rigidity score and wrist rigidity index by wearable angular velocity sensor. The class given is in vivo. To be noted: for UPDRS: motor classification for Rigidity & Rest Tremor (0 to 4); for Rigidity label (Avg): average, higher values = lower rigidity; for Rigidity label: higher index values correspond to lower perceived wrist rigidity. An excerpt:
FIG. 6: angular velocity data of a wrist rigidity assessment recorded using a device according to an embodiment of the present disclosure for a first subject for a period of time (a) without levodopa and (b) with a clinically effective dosage regime of levodopa. Also pictured are values of a rigidity index (label) calculated according to the present disclosure. Higher index values correspond to lower perceived wrist rigidity. FIG. 7: angular velocity data of a wrist rigidity assessment recorded using a device according to an embodiment of the present disclosure for a second subject for a period of time (a) without levodopa and (b) with a clinically effective dosage regime of levodopa. Also pictured are values of a rigidity index (label) calculated according to the present disclosure. Higher index values correspond to lower perceived wrist rigidity. Levodopa is an amino acid precursor of dopamine with antiparkinsonian properties. Levodopa is a prodrug that is converted to dopamine by DOPA decarboxylase and can cross the blood-brain barrier. Two patients (person and person) were subjected to a Levodopa level medication test where an experienced neurologist evaluates the subjective Unified PD Rating Scale (UPDRS) motor semi-quantitative classification for Rigidity & Rest Tremor (0 to 4) for a baseline (no levodopa) and in steps of increasing levodopa dosages until a UPDRS of 0 is achieved. This is the dosage as prescribed to the patient. At this dosage, wrist rigidity was evaluated as presently disclosed. As described above, higher index values correspond to lower perceived wrist rigidities. See also FIG. 6-7. A threshold of a rigidity measure according to the present disclosure, for example of 70% or 80%, can thus be used to objectively identify a clinically effective dosage regime. Furthermore, a threshold of a rigidity measure according to the present disclosure can also be used to identify a clinically effective dosage regime which also minimizes the risk of side effects.

Molecules are shown by their SMILES.

For `N[C@@H](Cc1ccc(O)c(O)c1)C(=O)O` [Levodopa], the UPDRS was determined as 0 (Subject 1, with clinically effective dosage of levodopa, baseline without levodopa 3) and 0 (Subject 2, with clinically effective dosage of levodopa, baseline without levodopa 2). Besides, the “Rigidity label (Avg)” value is, setting by setting: (Subject 1, with levodopa, baseline without levodopa 46.9) 74.3%; (Subject 2, with levodopa, baseline without levodopa 48.6) 84.9%. For the same molecule, the Rigidity label by setting is: (Subject 1, with levodopa, baseline without levodopa 40-50) 70-80%; (Subject 2, with levodopa, baseline without levodopa 50) 80-90%.

The values are drawn from patent US20210085244A1, “WRIST RIGIDITY ASSESSMENT DEVICE AND METHOD FOR IDENTIFYING A CLINICALLY EFFECTIVE DOSE” (INESC TEC- INSTITUTO DE ENGENHARIA DE SISTEMAS …, priority 2015, published 2021).
